Assay results reported in patent publication US9630977B2, “Cephalosporin derivatives and pharmaceutical compositions thereof” (Legochem Biosciences, Inc., priority 2011, dated 2017).

Legend:
P. aeruginosa R1023 = test: In vivo efficacy, whole-body infected mouse model, Ceftazidime-resistant bacteria;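 on Survival rate: each column one dose of 5 10 20 or 40 mg/kg given sc at 1 h and 4 h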; design: species or system ICR mouse; conditions: for Survival rate: subcutaneous 1 h and 4 h after infection, P. aeruginosa R1023 (2 × 10^6 CFU/mouse), four days
Procedure: (§1) Pharmaceutical efficacy of the cephalosporin derivative compounds according to the present invention was evaluated in a whole-body infected mouse model. Tables 3 and 4 show survival rate and ED50 values for the two compounds with excellent antibacterial activity with regard to an infected mouse by a drug-sensitive bacteria and a drug-resistant bacteria.
(§2) Test animals: 3 week old male ICR mouse, weight 18˜22 g; 5 mice/group.
(§3) Lab conditions: Temperature of 23±2° C.; humidity of 55±20%.
(§4) Administration method: Inducing whole-body infection by bacterial solution followed by subcutaneous injection (0.2 mL) after 1 hour and 4 hours.
(§5) Test method: Cultured bacteria were diluted with 0.9% NaCl to prepare a bacterial solution having a concentration that is 5 to 10 times of […]. 0.5 mL of bacterial solution was injected through abdominal cavity to induce whole-body infection. Test compounds were administered in four different amounts, which were designed considering in vitro MIC values of the test bacteria. After 1 hour and 4 hours, the four different amounts of the test compounds were subcutaneously administered. Survival rates were measured for four days and ED50 values were calculated according to the Probit method.

P. aeruginosa 1912E = test: In vivo efficacy, whole-body infected mouse model, Ceftazidime-sensitive bacteria; design: species or system ICR mouse; conditions: P. aeruginosa 1912E (2 × 10^6CFU/mouse); for Survival rate: four days
Procedure: as §1, §2, §3, §4, §5

Structure (SMILES)	ED50 (P. aeruginosa R1023; Pseudomonas aeruginosa, sc, Probit method, subcutaneous, mouse infected by Ceftazidime-resistant P. aeruginosa R1023) [mg/kg]	Survival rate (P. aeruginosa R1023; administered amount 5 mg/kg) [%]	Survival rate (P. aeruginosa R1023; administered amount 10 mg/kg) [%]	Survival rate (P. aeruginosa R1023; administered amount 20 mg/kg) [%]	Survival rate (P. aeruginosa R1023; administered amount 40 mg/kg) [%]	pharmaceutical efficacy (in words) (P. aeruginosa R1023; whole-body infected mice by the drug-resistant bacteria)	Survival rate (P. aeruginosa 1912E; 2.5 mg/kg subcutaneous after 1 hour and 4 hours) [%]	Survival rate (P. aeruginosa 1912E; 5 mg/kg subcutaneous after 1 hour and 4 hours) [%]	Survival rate (P. aeruginosa 1912E; 10 mg/kg subcutaneous after 1 hour and 4 hours) [%]	Survival rate (P. aeruginosa 1912E; 20 mg/kg subcutaneous after 1 hour and 4 hours) [%]	ED50 (P. aeruginosa 1912E; Pseudomonas aeruginosa, sc, subcutaneous, Probit method) [mg/kg]
C[C@H](O/N=C(\C(=O)N[C@@H]1C(=O)N2C(C(=O)[O-])=C(C[n+]3cnc(N)c(NCCNC(=O)c4cc(=O)c(O)cn4O)c3)CSC12)c1nc(N)sc1Cl)C(=O)O (some centres unmarked) [Compound 4]	10	40	40	80	100	much greater than that of Ceftazidime	–	–	–	–	–
CC(C)(O/N=C(\C(=O)N[C@@H]1C(=O)N2C(C(=O)[O-])=C(/C=C/C[n+]3cnc(N)c(NCCNC(=O)c4cc(=O)c(O)cn4O)c3)CSC12)c1csc(N)n1)C(=O)O (some centres unmarked) [Compound 8]	–	–	–	–	–	–	60	80	100	100	1.25
